The record followed here is patent US20140186302A1, “Nutritional Formulations and Method for Treating Diseases” (priority 2012, published 2014).

The test system of assay [1] is retinal lesions. Nature of the assay: Retinal lesion size by retinal photography in subjects having vitreomacular traction (VMT). In kind it is in vivo, human. The text has this:
As used herein, the terms “units of diameter” and units made in reference to lesion size or diameter refer to units of diameter of the posterior pole of an eye, which measures ten units in diameter between the vascular arcades. A lesion can be larger than 19 units.
Diagnosis of vitreomacular traction (VMT): VMT can be symptomatic or asymptomatic. Complaints of reduced or distorted vision may or may not be reported by the subject. Measurement of visual acuity (VA) may or may not be normal or reduced in one or both eyes. Measurement for distortion on an Amsler grid may or may not show distortion in one or both eyes. Retinal photography may show signs of VMT in the original color composite image (e.g., upper left photo in four panel photo of FIG. 1A). Further analysis of the choroid (e.g., upper right photo in four panel photo of FIG. 1A), the retina (e.g., lower left photo in four panel photo of FIG. 1A), and the retinal nerve fibre layer (RNFL) (e.g., lower right photo in four panel photo of FIG. 1A), may reveal puckering, fibrosis, lamellar splitting, partial lamellar holes, pseudo macular holes, bulging and/or edema in the choroid, retinal and/or RNFL images. Further analysis with “3-D” images of the choroid, retina and RNFL layers may show elevations diagnostic of VMT, such as, for example, the presence, severity and/or size of puckering, partial lamellar holes, macular holes, bulging or edema. Further, “3-D” images can be useful for determining which layers of the eye tissue are affected by VMT.
Ocular imaging: retinal photographs were taken using a Canon CR-1 Digital Retinal Camera and analyzed using EyeScape Digital Imaging Software, version 7.5.5.
The settings used for taking retinal photographs were such that optimal contrast and brightness for each subject was achieved. Most retinal photographs were taken with a dilated pupil. Some subjects have naturally very large pupils. In these cases, pupil dilation may not have been required to obtain sufficient images. The Canon CR-1 has a setting for small pupils that was used as required.
Data were collected from 40 subjects having symptomatic VMT over a period of 4.5 years.
Subjects were treated daily with lutein and zeaxanthin as described in table 1.

The test system of assay [2] is retinal lesions. The assay is described as above. In kind it is in vivo, human. The note with it: Case 1, lutein (10 mg) every other day, four months.
[3] abbreviates: Lutein 5 mg, zeaxanthin 0 mg, case 31.
Setting [4] is: Lutein 18 mg, zeaxanthin 0 mg, case 13.
Setting [5] is: Lutein 20 mg, zeaxanthin 0 mg, case 2.
The mark [6] stands for this setting: Lutein 0 mg, zeaxanthin 1 mg, case 27.

Turning to `CC1=C[C@H](O)CC(C)(C)[C@H]1/C=C/C(C)=C/C=C/C(C)=C/C=C/C=C(C)/C=C/C=C(C)/C=C/C1=C(C)C[C@@H](O)CC1(C)C` [lutein], the “OD lesion (units)” value in the assay on retinal lesions [1] (setting [3]), in the assay on retinal lesions [1] (setting [4]) and in the assay on retinal lesions [1] (setting [5]) was 0 units each time. For the same compound, the “OS lesion (units)” value is reported as 0.5 units with retinal lesions [1] (setting [3]), 0 units in the assay with retinal lesions [1] (setting [4]) and 3 units in the assay on retinal lesions [1] (setting [5]). For the same compound, the “ERM OD size after treatment” value with retinal lesions [2] (from 1.5 units) is reported as 0.5 units. For the same compound, the “OS macular pucker size after treatment” value with retinal lesions [2] (from 6.5 units) stood at 5.0 units.

In the case of `CC1=C(/C=C/C(C)=C/C=C/C(C)=C/C=C/C=C(C)/C=C/C=C(C)/C=C/C2=C(C)C[C@@H](O)CC2(C)C)C(C)(C)C[C@H](O)C1` [zeaxanthin], in the assay with retinal lesions [1] (setting [6]), the “OD lesion (units)” value is listed as 0.5 units and the “OS lesion (units)” value is given as 0.5 units.
